# According to patent publication US12371454B2, “Cyclic peptide compound having Kras inhibitory action” (priority 2019, dated 2025):
# Starred links: 1 amine or outer side, 2 acyl side, 3 side chain; linkers in the order of their positions; H or OH if unused. Positions of bridges follow the written chain, without caps; N, C: chain ends. Non-standard residues stand in square brackets, D forms with d. Residues, ends and D or L forms follow the SMILES beside them. *: point of attachment. hPhe(3-Cl-4-CF3) = N[C@@H](CCc1ccc(C(F)(F)F)c(Cl)c1)C(=O)O; hPhe(3-F,4-CF3) = N[C@@H](CCc1ccc(C(F)(F)F)c(F)c1)C(=O)O; hPhe(3-OMe-4-CF3) = COc1cc(CC[C@H](N)C(=O)O)ccc1C(F)(F)F; X67 = O=C([C@H](CCc1cc(F)c(F)cc1F)N[*:1])[*:2]; NMePhe(4-CN) = CN[C@@H](Cc1ccc(C#N)cc1)C(=O)O; NMePhe(3-Br) = CN[C@@H](Cc1cccc(Br)c1)C(=O)O; NMePhe(4-Cl) = CN[C@@H](Cc1ccc(Cl)cc1)C(=O)O; NMePhe(4-Me) = CN[C@@H](Cc1ccc(C)cc1)C(=O)O; NMeNle(6-CHF2) = CN[C@@H](CCCCC(F)F)C(=O)O; NMePhe(2-Cl) = CN[C@@H](Cc1ccccc1Cl)C(=O)O; NMePhe(2-Me) = CN[C@@H](Cc1ccccc1C)C(=O)O; NMedβ3hAla = C[C@H](CC(=O)[*:2])N(C)[*:1]; X8 = O=C([C@H](Cc1cc(I)ccc1F)N[*:1])[*:2]; NMeGly(cPent) = CN[C@H](C(=O)O)C1CCCC1; Phe(3-I) = N[C@@H](Cc1cccc(I)c1)C(=O)O; NMeCha = CN[C@@H](CC1CCCCC1)C(=O)O; NMehLeu = CN[C@@H](CCC(C)C)C(=O)O; NMeChg = CN[C@H](C(=O)O)C1CCCCC1; NMeF = CN[C@@H](Cc1ccccc1)C(=O)O; NMeI = CC[C@H](C)[C@H](NC)C(=O)O; NMeD = CN[C@@H](CC(=O)O)C(=O)O; dNMeD = CN[C@H](CC(=O)O)C(=O)O; NMeL = CN[C@@H](CC(C)C)C(=O)O; NMeV = CN[C@H](C(=O)O)C(C)C; d(β3hA) = C[C@@H](N)CC(=O)O; NMeA = CN[C@@H](C)C(=O)O; NMeAib = CNC(C)(C)C(=O)O; Nle = CCCC[C@H](N)C(=O)O; Piperidide = C1CCN(*)CC1; Pyrrolidide = C1CCN(*)C1; Ac5c = NC1(C(=O)O)CCCC1; Aze = O=C(O)[C@@H]1CCN1; Aib = CC(C)(N)C(=O)O; X27 = Clc1ccccc1C*; Sar = CNCC(=O)O
# Target: T1, Kras and SOS1 (biotin-tagged human Kras loaded with GDP, His-tagged human SOS1) (Homo sapiens, UniProt P01116, G12D)
# T1 construct: made in house; host or cells: E. coli (stated for Kras only)
# T1 sequence (P01116 1-188 isoform P01116-2 G12D): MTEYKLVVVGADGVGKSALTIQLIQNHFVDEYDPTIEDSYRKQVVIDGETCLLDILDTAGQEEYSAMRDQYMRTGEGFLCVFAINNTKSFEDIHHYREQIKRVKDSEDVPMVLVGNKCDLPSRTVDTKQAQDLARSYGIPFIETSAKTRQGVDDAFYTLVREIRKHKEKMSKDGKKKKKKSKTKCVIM
# Experiment: Protein-protein interaction inhibition between Kras and SOS1 (KrasGl2D-SOS PPI) using AlphaScreen
# Type: binding
# Settings: AlphaScreen; biotin-tagged human Kras loaded with GDP, His-tagged human SOS1; read-out: KRAS G12D-SOS PPI IC50
# Method in brief: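 Binding between SOS1 and Kras is detected as bead-proximity luminescence: illuminate Ni-conjugated donors (680 nm), collect 520-620 nm emission from streptavidin-conjugated acceptors; Kras carries biotin and GDP loaded after purification, SOS1 carries a His tag.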
row,Structure (SMILES),IC50
1,CC[C@H](C)[C@@H]1NC(=O)[C@H](CC(C)C)N(C)C(=O)C[C@@H](C)NC(=O)[C@H](C(C)C)N(C)C(=O)C2(CCCC2)NC(=O)[C@@H]2CCCN2C(=O)[C@H](CCc2ccc(C(F)(F)F)c(Cl)c2)NC(=O)CN(C)C(=O)[C@H](Cc2ccc(C#N)cc2)N(C)C(=O)CN(C)C(=O)CN(C)C1=O [Compound 564] (cyclo([Ac5c][NMeV][d(β3hA)][NMeL]I[Sar][Sar][NMePhe(4-CN)][Sar][hPhe(3-Cl-4-CF3)]P)),9.6 nM
2,CC[C@H](C)[C@@H]1NC(=O)[C@H](CC(C)C)N(C)C(=O)C[C@@H](C(=O)N(C)C)N(C)C(=O)[C@H](C2CCCC2)N(C)C(=O)C2(CCCC2)NC(=O)[C@H](Cc2ccccc2C)N(C)C(=O)[C@H](CCc2ccc(C(F)(F)F)c(Cl)c2)NC(=O)CN(C)C(=O)[C@H](CC2CCCCC2)N(C)C(=O)[C@@H]2CCN2C(=O)[C@H](C)N(C)C1=O [Compound 1880] ([NMeL]I[NMeA][Aze][NMeCha][Sar][hPhe(3-Cl-4-CF3)][NMePhe(2-Me)][Ac5c][NMeGly(cPent)][NMeD]-NMe2; lactam N-11),13 nM
3,"CC[C@H](C)[C@@H]1NC(=O)[C@H](CC(C)C)N(C)C(=O)C[C@@H](C(=O)N2CCCCC2)N(C)C(=O)[C@H](CC(C)C)N(C)C(=O)C(C)(C)NC(=O)[C@H](CC(C)C)N(C)C(=O)[C@H](CCc2ccc(C(F)(F)F)c(F)c2)NC(=O)CN(C)C(=O)[C@H](CCCCC(F)F)N(C)C(=O)CN(C)C(=O)CN(C)C1=O [Compound 1456] ([NMeL]I[Sar][Sar][NMeNle(6-CHF2)][Sar][hPhe(3-F,4-CF3)][NMeL][Aib][NMeL][NMeD]-Piperidide; lactam N-11)",12 nM
4,CC[C@H](C)[C@@H]1NC(=O)[C@H](CC(C)C)N(C)C(=O)C[C@@H](C(=O)N2CCCCC2)N(C)C(=O)[C@H](CC(C)C)NC(=O)C(C)(C)N(C)C(=O)[C@H](Cc2ccc(OC)cc2)NC(=O)[C@H](Cc2cccc(I)c2)NC(=O)CN(C)C(=O)[C@H](CC2CCCCC2)N(C)C(=O)[C@@H]2CCN2C(=O)[C@H](C)N(C)C1=O [Compound 169] ([NMeL]I[NMeA][Aze][NMeCha][Sar][Phe(3-I)]Y(Me)[NMeAib]L[NMeD]-Piperidide; lactam N-11),16 nM
5,CC[C@H](C)[C@@H]1NC(=O)[C@H](C)N(C)C(=O)C[C@@H](C(=O)N2CCCCC2)N(C)C(=O)[C@H](C2CCCCC2)N(C)C(=O)C2(CCCC2)NC(=O)[C@@H]2CCCN2C(=O)[C@H](COCc2ccccc2Cl)NC(=O)CN(C)C(=O)[C@H](CC2CCCCC2)N(C)C(=O)CN(C)C(=O)CN(C)C1=O [Compound 2043] ([NMeA]I[Sar][Sar][NMeCha][Sar]S(X27)P[Ac5c][NMeChg][NMeD]-Piperidide; lactam N-11),12 nM
6,CC[C@H](C)[C@@H]1NC(=O)[C@H](CC(C)C)N(C)C(=O)C[C@@H](C(=O)N2CCCCC2)N(C)C(=O)[C@H](C2CCCC2)N(C)C(=O)C2(CCCC2)NC(=O)[C@@H]2CCCN2C(=O)[C@H](CCc2ccc(C(F)(F)F)c(OC)c2)NC(=O)CN(C)C(=O)[C@H](CC2CCCCC2)N(C)C(=O)[C@@H]2CCN2C(=O)[C@H](C)N(C)C1=O [Compound 2080] ([NMeL]I[NMeA][Aze][NMeCha][Sar][hPhe(3-OMe-4-CF3)]P[Ac5c][NMeGly(cPent)][NMeD]-Piperidide; lactam N-11),0.33 nM
7,CC[C@H](C)[C@@H]1NC(=O)[C@H](CC(C)C)N(C)C(=O)C[C@H](C(=O)N2CCCC2)N(C)C(=O)[C@H]([C@@H](C)CC)N(C)C(=O)C2(CCCC2)NC(=O)[C@@H]2CCCN2C(=O)[C@H](CCc2ccc(C(F)(F)F)c(Cl)c2)NC(=O)CN(C)C(=O)[C@H](CC2CCCCC2)N(C)C(=O)CN(C)C(=O)CN(C)C1=O [Compound 1814] ([NMeL]I[Sar][Sar][NMeCha][Sar][hPhe(3-Cl-4-CF3)]P[Ac5c][NMeI][dNMeD]-Pyrrolidide; lactam N-11),170 nM
8,CC[C@H](C)[C@@H]1NC(=O)[C@H](C)N(C)C(=O)C[C@@H](C(=O)N(C)C)N(C)C(=O)[C@H]([C@@H](C)CC)N(C)C(=O)C2(CCCC2)NC(=O)[C@H](Cc2cccc(Br)c2)N(C)C(=O)[C@H](CCc2ccc(C(F)(F)F)c(Cl)c2)NC(=O)CN(C)C(=O)[C@H](Cc2ccc(C)cc2)N(C)C(=O)[C@@H]2CCN2C(=O)[C@H](C)N(C)C1=O [Compound 2000] ([NMeA]I[NMeA][Aze][NMePhe(4-Me)][Sar][hPhe(3-Cl-4-CF3)][NMePhe(3-Br)][Ac5c][NMeI][NMeD]-NMe2; lactam N-11),15 nM
9,CC[C@H](C)[C@@H]1NC(=O)[C@H](C)N(C)C(=O)C[C@@H](C(=O)N2CCCCC2)N(C)C(=O)[C@H](C(C)C)N(C)C(=O)C2(CCCC2)NC(=O)[C@@H]2CCCN2C(=O)[C@H](CCc2ccc(C(F)(F)F)c(Cl)c2)NC(=O)[C@H]2CCCN2C(=O)[C@H](CC2CCCCC2)N(C)C(=O)[C@@H]2CCN2C(=O)[C@H](C)N(C)C1=O [Compound 293] ([NMeA]I[NMeA][Aze][NMeCha][dP][hPhe(3-Cl-4-CF3)]P[Ac5c][NMeV][NMeD]-Piperidide; lactam N-11),120 nM
10,CC[C@H](C)[C@@H]1NC(=O)[C@H](C)N(C)C(=O)C[C@@H](C)NC(=O)[C@H](CC(C)C)N(C)C(=O)[C@H](Cc2ccccc2)N(C)C(=O)[C@H](CC(C)C)NC(=O)[C@H](CCc2cc(F)c(F)cc2F)NC(=O)CN(C)C(=O)[C@H](Cc2ccc(Cl)cc2)N(C)C(=O)CN(C)C(=O)CN(C)C1=O [Compound 2087] (cyclo(I[Sar][Sar][NMePhe(4-Cl)][Sar][X67]L[NMeF][NMeL][d(β3hA)][NMeA])),130 nM
11,"CC[C@H](C)[C@@H]1NC(=O)[C@H](CC(C)C)N(C)C(=O)C[C@@H](C)N(C)C(=O)[C@H](CC(C)C)NC(=O)C(C)(C)N(C)C(=O)[C@H](CC(C)C)NC(=O)[C@H](CCc2ccc(C(F)(F)F)c(F)c2)NC(=O)CN(C)C(=O)[C@H](CC2CCCCC2)N(C)C(=O)[C@@H]2CCN2C(=O)[C@H](C)N(C)C1=O [Compound 686] (cyclo([Aze][NMeCha][Sar][hPhe(3-F,4-CF3)]L[NMeAib]L[NMedβ3hAla][NMeL]I[NMeA]))",170 nM
12,CCCC[C@@H]1NC(=O)[C@H](Cc2cc(I)ccc2F)NC(=O)CN(C)C(=O)[C@H](Cc2ccc(Cl)cc2)N(C)C(=O)CN(C)C(=O)CN(C)C(=O)[C@H]([C@@H](C)CC)NC(=O)[C@H](CC(C)C)N(C)C(=O)C[C@@H](C(=O)N2CCCCC2)N(C)C(=O)[C@H](CC(C)C)NC(=O)C(C)(C)N(C)C1=O [Compound 1286] ([NMeL]I[Sar][Sar][NMePhe(4-Cl)][Sar][X8][Nle][NMeAib]L[NMeD]-Piperidide; lactam N-11),24 nM
13,CC[C@H](C)[C@@H]1NC(=O)[C@H](C)N(C)C(=O)C[C@@H](C(=O)N2CCCC2)N(C)C(=O)[C@H](C(C)C)N(C)C(=O)[C@@H](C)NC(=O)[C@H](Cc2ccccc2Cl)N(C)C(=O)[C@H](CCc2ccc(C(F)(F)F)c(Cl)c2)NC(=O)CN(C)C(=O)[C@H](CC2CCCCC2)N(C)C(=O)CN(C)C(=O)CN(C)C1=O [Compound 702] ([NMeA]I[Sar][Sar][NMeCha][Sar][hPhe(3-Cl-4-CF3)][NMePhe(2-Cl)][dA][NMeV][NMeD]-Pyrrolidide; lactam N-11),130 nM
14,CC[C@H](C)[C@@H]1NC(=O)[C@H](CC(C)C)N(C)C(=O)C[C@@H](C)NC(=O)[C@H](CCC(C)C)N(C)C(=O)C2(CCCC2)NC(=O)[C@@H]2CCCN2C(=O)[C@H](CCc2ccc(C(F)(F)F)c(Cl)c2)NC(=O)CN(C)C(=O)[C@H](CC2CCCCC2)N(C)C(=O)CN(C)C(=O)CN(C)C1=O [Compound 586] (cyclo([Ac5c][NMehLeu][d(β3hA)][NMeL]I[Sar][Sar][NMeCha][Sar][hPhe(3-Cl-4-CF3)]P)),160 nM
